In the NIST ThermoML archive (doi:10.1021/je4004405):

Experiments:
[1] = 298.15 K, 101.33 kPa, Liquid
[2] = wn = mass fraction of the nth substance listed; conditions: 101 kPa, Liquid; for viscosity: Capillary tube (Ostwald / Ubbelohde) method; for mass density: Pycnometric method

CCCCOCCO [2-butoxyethan-1-ol]
[1]
Conditions | mass density [kg/m3] | viscosity [mPa·s]
Capillary tube (Ostwald / Ubbelohde) method | – | 2.782
Pycnometric method | 896.16 | –

CCCCOCCO [2-butoxyethan-1-ol] + O
[2]
Conditions | mass density, 298.15 K [kg/m3] | mass density, 303.15 K [kg/m3] | mass density, 308.15 K [kg/m3] | mass density, 313.15 K [kg/m3] | viscosity, 298.15 K [mPa·s] | viscosity, 303.15 K [mPa·s] | viscosity, 308.15 K [mPa·s] | viscosity, 313.15 K [mPa·s]
w1 = 0.2 | 986.46 | 982.92 | 980.38 | 977.64 | 1.849 | 1.622 | 1.465 | 1.302
w1 = 0.4 | 967.1 | 964.31 | 961.45 | 958.48 | 2.998 | 2.635 | 2.334 | 2.054
w1 = 0.6 | 948.1 | 944.74 | 941.59 | 937.57 | 3.918 | 3.394 | 2.921 | 2.539
w1 = 1 | 896.16 | 892.74 | 888.88 | 884.29 | 2.782 | 2.499 | 2.206 | 1.946
